In US10386360B2, “Bio-microelectromechanical system transducer and associated methods” (University of Central Florida Research Foundation, Inc., priority 2009, dated 2019):
Entries after “also recorded” stand apart in the source; their conditions may differ.

Test system: contractile myotubes
Test: Veratridine added to electrically stimulated myotubes on microcantilevers, AFM laser detection
Type: cell-based, rat
Parameters: dose or concentration left out as unconfirmed
Conditions: myotubes 10 days in culture, 1 Hz stimulus, veratridine final concentration
Method: Skeletal muscle was dissected from the hind limb thighs of a rat fetus at embryonic day 18 (Charles River Laboratories, Wilmington, Mass.) according to a previously published protocol with some modification. Tissue samples were collected in a sterile 15-ml centrifuge tube containing 1 ml of calcium and magnesium free phosphate buffered saline (PBS). Tissue samples were enzymatically disassociated using 3 ml of 0.05% of trypsin-EDTA (Invitrogen, Carlsbad, Calif.) solution for 60 min in a 37° C. water bath with agitation of 100 rpm. After 60 min, the trypsin solution was removed and 6 ml of L15 media (Invitrogen, Carlsbad, Calif.) containing 10% fetal bovine serum (FBS) was added to terminate the trypsin action. The tissue was then mechanically triturated using a sterile narrow bore Pasteur pipette, allowed to settle for 3 min, and transferred to a 15-ml centrifuge tube. This was repeated three times. The dissociated tissue was then centrifuged at 300 g for 10 minutes at 4° C. on 6 ml of a 4% (wt/vol) cushion of bovine serum albumin (BSA). The pellet was resuspended in 10 ml L15+10% FBS and plated in uncoated 100-mm Petri dishes for 20-30 min depending on the amount of tissue, to allow contaminating fibroblasts to settle out. After 20-30 minutes the supernatant was layered on 6 ml of a 4% BSA cushion, and centrifuged at 300 g for 10 min at 4° C. […]

For `COc1ccc(C(=O)O[C@H]2CC[C@@]3(C)[C@@H]4CC[C@H]5[C@]6(O)C[C@H](O)[C@@]7(O)[C@@H](CN8C[C@@H](C)CC[C@H]8[C@@]7(C)O)[C@]6(O)C[C@@]53O[C@]24O)cc1OC` [veratridine], the “ability to contract after the initial tetanic contraction” value was “lost the ability to contract further; also recorded: lost the ability to further contract”.
